# Test results from patent US6512007B1, “Use of galiella lactone” (Bayer Aktiengesellschaft, priority 2000, dated 2003).
# Legend:
# [1] = tested on: 6-hydroxydopamine lesion of the substantia nigra; assay: 6-Hydroxydopamine (6-OH-DA) lesion in the rat, staircase test (forepaw coordination); assay type: in vivo; settings: bid, i.p.
# B16F10 = assay: Growth inhibition test (MTT), cytotoxic properties on tumour cell lines; assay type: cell-based; settings: Mus musculus, B16-F10, 144 h, day 6, read-out: cytotoxic effect IC50
# Procedure: (§1) The human colon cell lines SW 480 and HT 29 (ATCC Nos. CCL 228 and HBT-38), the mouse melanoma cell line B16F10 and the human prostate tumour cell lines LNCaP-FGC, PC-3 and DU 145 (ATCC No. CRL-10995, CRL-1435, HTB-81) were grown in RPMI 1640 medium with addition of 10% FCS in Roux dishes. This was followed by trypsinization and taking up in RPMI plus 10% FCS to a cell count of 50 000 cell/ml. 100 μl of cell suspension/well were put in a 96-microwell plate and incubated in a CO2 incubator at 37° C. for 1 day. A further 100 μl of RPMI medium and 1 μl of DMSO with galiella lactone were then added. The growth was monitored after day 6. For this purpose, 40 μl of MTT solution (3-(4,5-dimethylthiazol-2-yl)-2,5-diphenyltetrazolium bromide) with an initial concentration of 5 mg/ml of H2O were added to each microwell. Incubation took place in a CO2 incubator at 37° C. for 5 hours. The medium was then separated off, and 100 μl of i-propanol/well were added. After shaking with 100 μl of H2 O for 30 min, the extinction at 540 nm was measured with a Titertek Multiscan MCC/340 (flow).
# (§2) The cytotoxic effect is indicated in the table as IC50 (galiella lactone concentration in μM) for the various tumour cell lines: […]
# DU 145 = assay: as above; assay type: cell-based; settings: Homo sapiens, DU-145, 144 h; DU145, MTT, day 6; read-out: cytotoxic effect IC50
# Procedure: as §1, §2
# HT 29 = assay: as above; assay type: cell-based; settings: Homo sapiens, HT-29, 144 h; HAT29, MTT, day 6; read-out: cytotoxic effect IC50
# Procedure: as §1, §2
# LNCaP-FGC = assay: as above; assay type: cell-based; settings: Homo sapiens, 144 h, day 6, read-out: cytotoxic effect IC50
# Procedure: as §1, §2
# PC-3 = assay: as above; assay type: cell-based; settings: Homo sapiens, 144 h; PC-3, MTT, day 6; read-out: cytotoxic effect IC50
# Procedure: as §1, §2
# SW 480 = assay: as above; assay type: cell-based; settings: Homo sapiens, 144 h; SW480, MTT, day 6; read-out: cytotoxic effect IC50
# Procedure: as §1, §2
structure (smiles),measurement,setting,value
C[C@H]1C=C2C(=O)O[C@H]3CC[C@@H](C1)[C@@]23O [galiella lactone],fine motor control of the forepaws (staircase test),[1]; 1.0 mg/kg,improved
same,fine motor control of the forepaws (staircase test),[1]; 3.0 mg/kg,improved
same,IC50,B16F10,3 µM
same,IC50,DU 145,4.5 µM
same,IC50,HT 29,5 µM
same,IC50,LNCaP-FGC,2 µM
same,IC50,PC-3,4 µM
same,IC50,SW 480,5 µM
